Common to all, as to format: cell-based, human
For experiment [1], the system named is CD8+ T cell subsets and PBMC from melanoma patients. Kind of experiment: Fold expansion of MART-1 TCR transduced cultures. Conditions: IL2, day 13-15 after stimulation. The source says: CD8^+ T cell subsets from freshly isolated PBMC from melanoma patients were isolated and the stimulated with coated CD3 plus soluble CD28 (CD3+CD28 in the graph) or with CD3/CD28/CD2 coated MACSiBeads (MACSiBeads in the graph) or with CD3/CD28 Nanomatrix in the presence of IL2. After 2 days of stimulation cells have been transduced to express MART-1 TCR. In the graph is reported the fold expansion of each culture at day 13-15 after stimulation.
One important application for activating and expanding T cells and in particular purified cell subsets is their genetic manipulation, e.g. to introduce a certain antigen receptor with specificity for tumor antigens. We have used nanomatrices to activate purified naïve (TN, CD62L+CD45RA+), central memory (TCM, CD62L+CD45RA−) and effector (TEM, CD62L−CD45RA−) T cells and transduced them using a retroviral vector expressing a TCR specific for MART-1, a tumor antigen. To test the relative frequency of transgene expression in these T cell subsets we performed MHC-peptide Class I tetramer staining. All T cell subsets are efficiently transduced (>50%) independent on the stimulatory conditions we tested (FIG. 7). We also compared the in vitro expansion of the transduced T cells. As shown in FIG. 8 after 10 days we observed no differences with regard to expansion of the three subsets under all conditions. […]

In another experiment the test system is naive T cells. Briefly: Expansion of naive T cells, soluble versus nanomatrix-conjugated CD28 in presence of soluble CD3. Conditions: soluble CD3 alone, day 7. The procedure:
(§1) FIG. 6: Comparison of soluble CD3 or CD28 antibodies to CD3 or CD28 antibodies conjugated to nanomatrices. Naive CD4 and CD8 T cells were isolated and stimulated in vitro in the presence of IL-2 using soluble CD3 (0-10000 ng/mL) w/o CD28 (A) or in the presence of soluble CD28 (200 ng/ml) (B) and compared to CD28 conjugated to nanomatrix (200 ng/ml) and analysed for early activation markers CD25/CD69 on day 5 or for expansion (C) on day 7. 2 donors were analysed in duplicates.
We also tested the effect of conjugation of CD28 antibodies to the nanomatrix. Since the effects of costimulation are best visualized under suboptimal CD3 stimulation, we titrated CD28 either soluble or conjugated to the nanomatrix in the presence of soluble CD3 to a culture of naïve T cells. […] In the presence of soluble CD28 however a 2-6 fold expansion was detectable but only at the highest tested dose of CD28 (10000 ng/ml).

Experiment [2] has as its system naive CD4 and CD8 T cells. Kind of experiment: Induction of early activation markers CD25/CD69, soluble versus nanomatrix-conjugated CD3. As to the method:
as §1
IL-2 was added to all cultures. […] In contrast the CD3 coated nanomatrix (100 ng/ml CD3) induced CD25/CD69 expression in 40-70% of the cells.

The record followed here is patent publication US20150240204A1, “METHOD FOR POLYCLONAL STIMULATION OF T CELLS BY MOBILE NANOMATRICES” (MILTENYI BIOTEC GMBH, priority 2012, published 2015).

Turning to “soluble CD3: soluble anti-CD3 antibody (CD3 antibodies, clone OKT3)”, the fold expansion in experiment [1] is reported as 57.61±17.75. The “expansion of naive T cells” value in the experiment on naive T cells is reported as “did not induce any expansion”. Moreover, the “up-regulation of early activation markers CD25 and CD69” value in experiment [2] (10-10000 ng/ml, without CD28, IL-2, day 5) was “did not induce any significant up-regulation”. Also, in experiment [2] (highest tested doses 100-10000 ng/ml, with soluble CD28 200 ng/ml, IL-2, day 5), the CD25/CD69 expression is 20-40 % of the cells.
